# Test results as given in US10945981B2, “Methods for treating familial adenomatous polyposis” (CANCER PREVENTION PHARMACEUTICALS, INC., priority 2019, dated 2021).
# “Also recorded” adds a separate entry of the source.
# What was measured:
# [1] = cited from earlier work
# [2] = tested on: patients with Familial Adenomatous Polyposis (FAP); experiment: Randomized, double-blind phase III trial in FAP patients: FAP-related events (efficacy); format: in vivo, human; conditions: for Mean time to first FRE: Kaplan-Meier estimated; for Hazard ratio: combination versus the arm named
# Description: Patients were stratified by anatomic site with highest polyp burden and surgical status: (a) post colectomy with rectal or ileal pouch polyposis (longest projected time to first FRE); (b) with duodenal polyposis (intermediate projected time to first FRE); and (c) pre-colectomy (shortest projected time to first FRE) prior to randomization to minimize treatment imbalance.
# A stratified randomization procedure was used with stratification based on FAP-related time-to-first-event prognosis (see FIG. 1). The event prognosis groups were represented by 1) best (i.e., longest projected time to first FAP-related event)—rectal/pouch polyposis (Post-colectomy (≥3 years S/P IRA or IPAA with >10 polyps; any polyps >5 mm excised at baseline)), 2) intermediate—duodenal polyposis (Spigelman Stage 3 or 4 or Spigelman Stage 3 or 4 down-staged to Spigelman 1 or 2 within the past 6 months), and 3) worst—pre-colectomy. If a subject has two or more of these disease sites, the most severe prognosis stratum was assigned for randomization (e.g. worst>intermediate>best). Since an individual may have more than one disease site involved, the trial assessed time to any defined FAP-related event in the subject as a whole. In order to minimize potential treatment arm imbalance a centralized randomization process was used to balance among treatment groups within prognostic strata.
# Lower GI Endoscopy: Patients were evaluated via colonoscopy, flexible or rigid procto-sigmoidoscopy during the screening phase. Biopsies, ablations, and snare excisions at baseline were performed per the clinician's standard of care. If considered eligible based on inclusion criteria, a grossly normal mucosa biopsy was obtained for baseline polyamine measurement. Still and video documentation of the colon (vide infra) or the residual rectum or entire pouch was also obtained for archiving. Polyp size was determined by visual comparison with biopsy forceps that can measure 5.0-5.5 mm in the fully open position. All randomized patients with an intact colon or rectum/pouch had baseline and on-study lower GI endoscopy procedures as part of this trial.
# Upper GI Endoscopy: The duodenum was evaluated by forward-viewing and/or side-viewing gastroscopes (with still and video documentation with closed and open biopsy forceps near mucosa). All randomized patients with a duodenum had baseline and on-study UGI endoscopy as part of this trial. Subjects stratified to the duodenal group must have duodenal biopsies of all polyps 1 cm or larger to determine HGD and histology required for determining Stage 3 or 4 Spigelman status.
# FAP-related primary events by disease site were as follows: • 1. Pre-operative, intact colon: Disease progression indicating need for colectomy with IRA or total procto-colectomy • 2. Retained rectum or pouch events include one or more of the following: • a) Excisional intervention by endoscopic snare or trans-anal excision to remove any polyp ≥10 mm in size (per pathology report) and/or pathologic evidence of high grade dysplasia. • b) Disease progression indicating need for proctectomy or pouch resection • 3. Duodenal disease includes the following: • a) Progression in Spigelman Stage to more advanced stage (Stage 2, 3 or 4) • b) Disease progression indicating need for excisional intervention (sub-mucosal resection, trans-duodenal excision, ampullectomy, duodenectomy, Whipple procedure) • c) Development of cancer
# At six month intervals (+/−two weeks), subjects underwent repeat upper and lower endoscopy. […] Video recordings of all procedures and qualitative assessments were compared to the exam 6 months prior.
# [3] = human, in vivo; cited from earlier work
# [4] = tested on: patients with Familial Adenomatous Polyposis (FAP); experiment: Randomized, double-blind phase III trial in FAP patients: safety (adverse events); conditions: for Treatment-related serious adverse events: 1 patient each
# [5] = in vivo; cited from earlier work
# patients with FAP = conditions: cited from earlier work
# [6] = disease site colon, number of subjects
# [7] = disease site duodenum, number of subjects
# [8] = disease site rectum and pouch, number of subjects
# [9] = post-colectomy, rectal/ileal pouch stratum
smiles,measurement,setting,value
CSc1ccc(/C=C2/C(C)=C(CC(=O)O)c3cc(F)ccc32)cc1 [sulfide metabolite],Mean half-life,[1]; in vivo,16.4 h
"CC1=C(CC(=O)O)c2cc(F)ccc2/C1=C\c1ccc([S+](C)[O-])cc1 (stereo not shown) [Sulindac, (Z)-5-fluoro-2-methyl-1-((4-(methylsulfinyl)phenyl)methylene)-1H-indene-3-acetic acid]",Kaplan-Meier estimated mean time to first FRE,[2]; ITT population,23.6 months
same,Event-free rate,"[2]; ITT population, cumulative",63.1%
same,"FREs occurred, percent of patients","[2]; ITT population, cumulative",37.9%
same,"Surgical FAP-related events, Colon: Event-free proportion",[2]; disease site colon,69.2%
same,"Surgical FAP-related events, Colon: Colectomy",[2]; [6],2
same,"Surgical FAP-related events, Colon: Disease progression",[2]; [6],4
same,"Surgical FAP-related events, Duodenum: Event-free proportion",[2]; disease site duodenum,70.2%
same,"Surgical FAP-related events, Duodenum: Disease progression",[2]; [7],10
same,"Surgical FAP-related events, Duodenum: Excisional intervention",[2]; [7],6
same,"Surgical FAP-related events, Duodenum: Spigelman stage progression",[2]; [7],7
same,"Surgical FAP-related events, Rectum and Pouch: Event-free proportion",[2]; disease site rectum and pouch,95%
same,"Surgical FAP-related events, Rectum and Pouch: Disease progression",[2]; [8],2
same,"Surgical FAP-related events, Rectum and Pouch: Proctectomy/pouch resection",[2]; [8],1
same,FRE type: Duodenal excision,[2]; duodenal polyposis stratum,6
same,FRE type: Duodenal excision and Spigelman stage progression,[2]; duodenal polyposis stratum,2
same,FRE type: Duodenal excision and ≥ 10 mm polyp removed in rectum/pouch,[2]; duodenal polyposis stratum,1
same,FRE type: Proctocolectomy and ≥ 10 mm polyp removed in rectum/pouch,[2]; duodenal polyposis stratum,1
same,FRE type: Spigelman stage progression,[2]; duodenal polyposis stratum,3
same,FRE type: ≥10 mm polyp removed in rectum/pouch,[2]; duodenal polyposis stratum,1
same,"Patients with FRE, %",[2]; duodenal polyposis stratum,(41.2) %
same,Total FRE,[2]; duodenal polyposis stratum,14
same,Mean time to first FRE,[2]; duodenal polyposis stratum,21.1 months
same,Risk reduction versus combination,"[2]; duodenal polyposis stratum, combination relative to the arm named",29%
same,Hazard ratio,[2]; duodenal polyposis stratum,0.716
same,"Patients with FRE, %","[2]; duodenal polyposis stratum, listed as sulindac",41.2%
same,Progression of lower gastrointestinal polyposis: surgeries,"[2]; human, in vivo",3
same,Patients with duodenal polyposis progression who underwent duodenal excisional procedures,[2]; number of patients,6
same,FRE type: Pouch resection,[2]; [9],1
same,FRE type: ≥10 mm polyp removed in rectum/pouch,[2]; [9],1
same,"Patients with FRE, %",[2]; [9],(18.2) %
same,Total FRE,[2]; [9],2
same,Mean time to first FRE,[2]; [9],27.5 months
same,Risk reduction versus combination,"[2]; post-colectomy, rectal/ileal pouch stratum, combination relative to the arm named",16%
same,Hazard ratio,[2]; [9],0.841
same,"Patients with FRE, %","[2]; post-colectomy, rectal/ileal pouch stratum, listed as sulindac",18.2%
same,FRE type: Colectomy,[2]; pre-colectomy stratum,4
same,FRE type: Duodenal excision and Spigelman stage progression,[2]; pre-colectomy stratum,1
same,FRE type: Spigelman stage progression,[2]; pre-colectomy stratum,1
same,"Patients with FRE, %",[2]; pre-colectomy stratum,(46.2) %
same,Total FRE,[2]; pre-colectomy stratum,6
same,Mean time to first FRE,[2]; pre-colectomy stratum,25.2 months
same,Hazard ratio,[2]; pre-colectomy stratum,0.299
same,"Patients with FRE, %","[2]; pre-colectomy stratum, listed as sulindac",46.2%
same,Risk reduction versus combination,"[2]; pre-colectomy stratum, risk reduction for FRE of the combination relative to the arm named",70%
same,Event Rate of FAP-related Surgery Events in Lower GI,[2]; subjects with lower GI anatomy,6/58 (10%)
same,Lower GI surgery events: Need colectomy,[2]; subjects with lower GI anatomy,4
same,Lower GI surgery events: Need pouch resection,[2]; subjects with lower GI anatomy,1
same,Lower GI surgery events: Need proctectomy,[2]; subjects with lower GI anatomy,1
same,Lower GI surgery events: Total Surgical Events,[2]; subjects with lower GI anatomy,6
same,Progression of lower gastrointestinal polyposis: polypectomies,[2]; ≥10 mm in size and/or high grade dysplasia,4
same,Time to peak plasma levels,"[1]; oral, fasting patients",about 2 hours
same,Drug absorbed after oral administration,[1]; oral,about 90%
same,"Mild gastrointestinal effects, percent of patients",[3],~20%
same,"Skin rash and pruritus, percent of patients",[3],5%
same,"Discontinuations due to AEs, number of patients",[4],6 patients
same,"Discontinuations due to AEs, percent of patients",[4],10.3%
same,TRAE reported by % of patients,[4],73.7%
same,Treatment-related hearing adverse events: Hearing loss N,[4],2
same,Treatment-related hearing adverse events: Tinnitus N,[4],5
same,Treatment-related serious adverse events,[4],Severe Nausea; also recorded: Deep Vein Thrombosis; also recorded: Worsening of Depression; also recorded: Spontaneous Abortion
same,Treatment-related serious adverse events,[4]; listed as sulindac,"severe nausea, deep vein thrombosis, worsening of depression, and spontaneous abortion"
same,Death,[4]; safety population,0 n (%)
same,Number of patients discontinuing due to a TRAE,[4]; safety population,5 (8.8) n (%)
same,Number of patients reporting TEAEs,[4]; safety population,50 (87.7) n (%)
same,Number of patients reporting TEAEs ≥ Grade 3,[4]; safety population,12 (21.1) n (%)
same,Number of patients reporting TRAE: Abdominal distension,[4]; safety population,3 (5.3) n (%)
same,Number of patients reporting TRAE: Abdominal pain,[4]; safety population,4 (7.0) n (%)
same,Number of patients reporting TRAE: Alopecia,[4]; safety population,3 (5.3) n (%)
same,Number of patients reporting TRAE: Decreased appetite,[4]; safety population,4 (7.0) n (%)
same,Number of patients reporting TRAE: Depression,[4]; safety population,3 (5.3) n (%)
same,Number of patients reporting TRAE: Diarrhea,[4]; safety population,3 (5.3) n (%)
same,Number of patients reporting TRAE: Dizziness,[4]; safety population,2 (3.5) n (%)
same,Number of patients reporting TRAE: Dyspepsia,[4]; safety population,4 (7.0) n (%)
same,Number of patients reporting TRAE: Fatigue,[4]; safety population,4 (7.0) n (%)
same,Number of patients reporting TRAE: Flatulence,[4]; safety population,3 (5.3) n (%)
same,Number of patients reporting TRAE: Frequent bowel movements,[4]; safety population,1 (1.8) n (%)
same,Number of patients reporting TRAE: Gastritis erosive,[4]; safety population,0 n (%)
same,Number of patients reporting TRAE: Headache,[4]; safety population,7 (12.3) n (%)
same,Number of patients reporting TRAE: Hematochezia,[4]; safety population,2 (3.5) n (%)
same,Number of patients reporting TRAE: Nausea,[4]; safety population,9 (15.8) n (%)
same,Number of patients reporting TRAE: Pruritus,[4]; safety population,4 (7.0) n (%)
same,Number of patients reporting TRAE: Rash,[4]; safety population,0 n (%)
same,Number of patients reporting TRAE: Rectal hemorrhage,[4]; safety population,4 (7.0) n (%)
same,Number of patients reporting TRAE: Thrombocytopenia,[4]; safety population,3 (5.3) n (%)
same,Number of patients reporting TRAE: Tinnitus,[4]; safety population,5 (8.8) n (%)
same,Number of patients reporting TRAE: Upper abdominal pain,[4]; safety population,1 (1.8) n (%)
same,Number of patients reporting TRAE: Vomiting,[4]; safety population,4 (7.0) n (%)
same,Number of patients reporting TRAEs,[4]; safety population,42 (73.7) n (%)
same,Number of patients reporting TRSAEs,[4]; safety population,4 (7.0) n (%)
"Cc1ccc(-c2cc(C(F)(F)F)nn2-c2ccc(S(N)(=O)=O)cc2)cc1 [celecoxib, 4-[5-(4-Methylphenyl)-3-(trifluoromethyl)pyrazol-1-yl]benzenesulfonamide]",Increase in rates of heart and blood vessel disease,[5],30%
same,Risk of gastrointestinal side effects,[5],greater than 80%
same,Reduction of measures of global tumor burden from baseline,patients with FAP,30%
same,Reduction of the number of colonic adenomas,patients with FAP,1%
